Legend:
[1] = system: nail fungus (onychomycosis); assay: Repeated topical application of pure allicin on infected toenails of volunteers; assay type: in vivo
Method: In this preliminary study, the effect of repeated topical application of pure allicin on an infected nail was examined. The study was performed on a group of 10 volunteers infected with nail fungus (onychomycosis), wherein only toenails showing visible signs of being infected with a nail fungus were chosen for the topical treatment. […] The allicin solution was kept at 4° C. in citrate buffer pH 6.0 containing 1 M urea in a dark flask. A round cotton pad was cut in the approximate dimensions and size of the infected toenail (1.3 cm diameter×0.3 cm thick). 0.5 ml of the allicin solution was slowly delivered with a pipette to the surface of the cotton pad and the wet cotton pad was placed on the nail, taking precaution so as not to touch the skin surrounding the nail. The toe with the cotton pad was then covered overnight with a strip made of nylon to secure the pad on the nail and to prevent the spread of the volatile smelly odor of allicin. This treatment was repeated every night for 14 days. […] The treatment was then repeated once a week until all the infected regions of the old nail were cut off.

[2] = system: Trichomonas vaginalis; assay: In vitro growth of Trichomonas vaginalis trophozoites with pure allicin (hemacytometer count); assay type: cell-based; conditions: 24 hours, 37° C.
Method: The effect of allicin on the different microorganisms was tested in (i) sensitivity tests to different concentrations of pure allicin in liquid culture tubes containing full nutrient medium; […] The effects of allicin on Trichomonas vaginalis was tested in liquid cultures, and the viability of the trophozoites after exposure to different concentrations of allicin was determined by the methylene blue vital dye exclusion as previously described (Kiernan, 1974). […] Aliquotes were taken following incubation of 24 hours and the number of trophozoites was counted using a hemacytometer.

[3] = biological target: various microorganisms; assay: Sensitivity tests of microorganisms to pure allicin and to allicin from dry alliin/alliinase mixtures (liquid culture, disk filters on agar, tampons); assay type: cell-based; conditions: for LD50: range over the various microorganisms tested
Method: In this experiment, the effect of allicin released upon wetting of the medicated tampons on various microorganisms, kindly provided by Dr. N. Keller from the clinical microbiology laboratory of the Sheba Medical Center (Tel HaShomer, Israel), was tested. The list of microorganisms included various types of yeasts, in particular, Saccharomyces cerevisiae, Candida albicans and Candida Glabrata; and several types of bacteria, in particular, group B Streptococci, methicillin-resistant Staphylococcus aureus (MRSA) and vancomycin-intermediate Staphylococcus aureus (VISA). In addition, two strains of Trichomonas vaginalis, one adherent to the plastic of the tube and the other non-adherent, were tested.
In addition, various mixtures of dry alliin and dry alliinase were placed inside the cleft of vaginal tampons to yield different amounts of allicin in tubes containing liquid medium with bacteria or yeasts, wherein following overnight incubation, aliquots were taken from the tubes and plated on nutrient agar plates, and the number of colonies developed was determined in comparison to untreated controls. The effects of allicin on Trichomonas vaginalis was tested in liquid cultures, and the viability of the trophozoites after exposure to different concentrations of allicin was determined by the methylene blue vital dye exclusion as previously described (Kiernan, 1974).
Dry glass fiber filters on which a solution containing 5, 20 or 30 μg of pure allicin was dripped just before placing on the seeded agar served as standards, and dry glass fiber filters that were placed on the seeded agar were used as controls.

[4] = kept at cold temperatures, pH around 6; cited from earlier work
[5] = system: Trichoderma hyphae; assay: Antifungal activity of the two-filter delivery system on agar plates (halo of inhibition); assay type: cell-based; conditions: for inhibition of fungal growth (halo around filter): filters placed 6 h after seeding 5×10^6 spores, 28° C., overnight incubation, FIG. 3A; for inhibition of fungal growth (halo around filter), mature growth: filters placed after 24 hours incubation, further 16 h, FIG. 3B
Method: In this experiment, the effect of allicin released upon wetting of the two-filter delivery system on spores of Trichoderma hyphae was tested. In particular, four Petri dish plates containing nutrient agar for fungal growth were seeded with 5×10^6 spores of a test soil fungi (Trichoderma hyphae) and incubated at 28° C. […] Additional two plates in each of which a single glass fiber filter containing either the substrate or the enzyme were placed were used as controls and treated the same way. A fourth plate containing only the fungus served as the positive control, and a fifth plate without any fungus was used as the negative control.
A similar experiment was carried out with identical filters on Petri dish plates that contained a more mature Trichoderma hyphae growth (after 24 hours incubation from seeding of the same number of spores). The filters were placed as described above and the plates were incubated for another 16 h.

[6] = Storage stability of dry alliin/alliinase components and filters (potential to produce allicin); assay type: physicochemical; conditions: dry form at room temperature

Compound	outcome of infected toenails after treatment ([1]; 0.5 ml of 0.5 mg/ml allicin solution (citrate buffer pH 6.0, 1 M urea) on cotton pad overnight, every night 14 days, then once a week, 10 volunteers)	tolerability: treatment not completed because of garlic smell ([1]; 10 volunteers)	color of the fungus in the nail ([1]; by the third day of the treatment)	time toenails remained fungus free ([1]; in some cases)	color of the emerging new nail ([1]; within two weeks)	Trophozoites (×10^4) ([2]; allicin 5 μg/ml)	Trophozoites (×10^4) ([2]; allicin 10 μg/ml)	Trophozoites (×10^4) ([2]; allicin 15 μg/ml)	Trophozoites (×10^4) ([2]; allicin 25 μg/ml)	killing of microorganisms ([3]; all experiments, irrespective of type of microorganism, FIGS. 4-5 and Table 1)	LD50 [3] [µg/mL]	LD50 ([3]; as μM allicin) [µM]	degradation rate [4] [%/month]	inhibition of fungal growth (halo around filter) [5]	inhibition of fungal growth (halo around filter), mature growth [5]	preservation of potential for producing allicin [6]
C=CCS[S+]([O-])CC=C (stereo not drawn) [allicin, diallyl thiosulfinate]	eight individuals had a remarkably healthy regeneration of their toenails	Two individuals did not complete the treatment	turned from dark green to yellowish white	over 2 years	resumed its natural color	48 ×10^4	45 ×10^4	8 ×10^4	3 ×10^4	effective killing	8 to 15	20 to 50	8			
alliin														No such halos were seen	such halo is not visible	
alliinase														No such halos were seen	such halo is not visible	preserved their potential for producing allicin for several months

Source: patent publication US20110027341A1, “DEVICE FOR IN SITU PRODUCTION AND TOPICAL ADMINISTRATION OF ALLICIN” (YEDA RESEARCH AND DEVELOPMENT CO., LTD. at the Weizmann …, priority 2008, published 2011)
